Columns and labels:
HeLa = assay: Antiproliferative activity against human HeLa cells assessed as reduction in cell viability after 72 hrs by MTT assay; format: functional, cell-based
MV4-11 [1] = assay: Induction of apoptosis in human MV4-11 cells assessed as viable cells at 1.25 uM after 24 hrs by Annexin-V/propidium iodide staining based flow cytometric method (reference value: 96.94%); format: functional; conditions: MV4-11, 24 h, read-out: Activity
MV4-11 [2] = assay: Cell cycle arrest in human MV4-11 cells assessed as accumulation at S phase at 0.25 uM after 24 hrs propidium iodide staining based flow cytometry (reference value: 26.06%); format: functional
MV4-11 [3] = assay: Induction of apoptosis in human MV4-11 cells assessed as increase in cleaved PARP level after 24 hrs by Western blot analysis; format: functional, cell-based
MV4-11 [4] = assay: Induction of apoptosis in human MV4-11 cells assessed as early apoptotic cells at 0.25 uM after 24 hrs by Annexin-V/propidium iodide staining based flow cytometric method (reference value: 0.36%); format: functional
[5] = Toxicity in BALB/c mouse assessed as mortality at 15 to 45 mg/kg, iv administered every other day for 21 days; format: organism-based; conditions: in vivo, 504 h
CDK9/cyclin T1 = CDK9/cyclin T1 (Homo sapiens, UniProt P50750)
Sequence of CDK9/cyclin T1 (O60563 whole entry): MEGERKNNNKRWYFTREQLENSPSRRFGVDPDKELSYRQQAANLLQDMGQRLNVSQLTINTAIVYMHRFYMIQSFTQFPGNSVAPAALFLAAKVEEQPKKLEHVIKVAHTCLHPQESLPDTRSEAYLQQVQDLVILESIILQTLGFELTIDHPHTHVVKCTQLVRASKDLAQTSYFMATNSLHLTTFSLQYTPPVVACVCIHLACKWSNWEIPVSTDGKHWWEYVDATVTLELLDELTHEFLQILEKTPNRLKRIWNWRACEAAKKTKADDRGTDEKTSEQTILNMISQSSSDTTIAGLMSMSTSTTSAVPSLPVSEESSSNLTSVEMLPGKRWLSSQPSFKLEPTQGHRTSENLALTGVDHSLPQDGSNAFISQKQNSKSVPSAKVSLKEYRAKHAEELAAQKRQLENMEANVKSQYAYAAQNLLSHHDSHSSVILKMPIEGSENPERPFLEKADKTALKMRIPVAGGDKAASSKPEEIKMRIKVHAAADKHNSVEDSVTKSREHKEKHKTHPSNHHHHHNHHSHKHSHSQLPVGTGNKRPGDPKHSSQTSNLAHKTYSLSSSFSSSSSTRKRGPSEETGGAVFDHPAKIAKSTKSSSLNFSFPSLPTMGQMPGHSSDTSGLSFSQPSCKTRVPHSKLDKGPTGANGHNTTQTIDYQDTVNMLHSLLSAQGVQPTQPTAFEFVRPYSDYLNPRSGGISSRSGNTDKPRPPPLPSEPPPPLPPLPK
Sequence of CDK9/cyclin T1 (P50750 whole entry): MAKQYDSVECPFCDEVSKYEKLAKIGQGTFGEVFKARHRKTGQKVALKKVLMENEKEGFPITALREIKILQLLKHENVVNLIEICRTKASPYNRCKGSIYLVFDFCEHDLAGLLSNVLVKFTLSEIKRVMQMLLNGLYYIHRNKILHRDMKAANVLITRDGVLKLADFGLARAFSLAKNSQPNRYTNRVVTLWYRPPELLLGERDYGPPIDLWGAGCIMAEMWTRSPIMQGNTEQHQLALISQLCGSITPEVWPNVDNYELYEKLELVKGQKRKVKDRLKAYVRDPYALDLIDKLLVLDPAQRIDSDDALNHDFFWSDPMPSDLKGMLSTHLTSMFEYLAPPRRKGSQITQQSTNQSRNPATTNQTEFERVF

MV4-11 [6] = assay: Cell cycle arrest in human MV4-11 cells assessed as accumulation at G1 phase at 0.05 uM after 24 hrs by propidium iodide staining based flow cytometry (reference value: 41.20%); format: functional
HT-29 = assay: Antiproliferative activity against human HT-29 cells assessed as reduction in cell viability after 72 hrs by MTT assay; format: functional, cell-based; conditions: HT-29, 72 h
MV4-11 [7] = assay: Cell cycle arrest in human MV4-11 cells assessed as accumulation at G1 phase at 1.25 uM after 24 hrs by propidium iodide staining based flow cytometry (reference value: 41.20%); format: functional
MV4-11 [8] = assay: Induction of apoptosis in human MV4-11 cells assessed as late apoptotic cells at 1.25 uM after 24 hrs by Annexin-V/propidium iodide staining based flow cytometric method (reference value: 0.07%); format: functional
MV4-11 [9] = assay: Induction of apoptosis in human MV4-11 cells assessed as viable cells at 0.25 uM after 24 hrs by Annexin-V/propidium iodide staining based flow cytometric method (reference value: 96.94%); format: functional; conditions: MV4-11, 24 h, read-out: Activity
MV4-11 [10] = assay: Induction of apoptosis in human MV4-11 cells assessed as early apoptotic cells at 1.25 uM after 24 hrs by Annexin-V/propidium iodide staining based flow cytometric method (reference value: 0.36%); format: functional

In the case of COc1cc(O)c2c(=O)cc(-c3ccc(N4CCN(C)CC4)cc3)oc2c1Oc1c(C)n[nH]c1C, the IC50 (HeLa) is reported as 2.32 µM, the viability at 1.25 µM (MV4-11 [1]) is reported as 58.1% and the Activity (MV4-11 [2]) is reported as 30.91%. The Activity (MV4-11 [3]) was “Dose-dependent effect”, the Activity (MV4-11 [4]) was 21.25% and the Activity [5] was “Non-Toxic”. It also gave an IC50 (CDK9/cyclin T1) of 0.0199 µM, an Activity (MV4-11 [6]) of 48.27% and an IC50 (HT-29) of 1.8 µM. The Activity (MV4-11 [7]) was 62.77%, the Activity (MV4-11 [8]) was 9.05% and the viability at 0.25 µM (MV4-11 [9]) was 63.7%. It also gave an Activity (MV4-11 [10]) of 26.43%.

From ChEMBL document CHEMBL4364281, “Design of wogonin-inspired selective cyclin-dependent kinase 9 (CDK9) inhibitors with potent in vitro and in vivo antitumor activity” (Eur J Med Chem, 2019)
